Changes are numbered by the printed parent chain.
Columns and labels:
[1] = target: T1, β-glucocerebrosidase, p.L444P mutation (GM08760A fibroblasts) (Homo sapiens, UniProt P04062, L483P); assay: Enhancement of β-glucocerebrosidase activity measured in Gaucher disease fibroblasts (L444P); format: cell-based; details: increase in enzyme activity vs non-treated cells, GBA fibroblasts bearing L444P
T1 construct: host or cells: human Gaucher patient fibroblasts GM08760A, homozygous L444P
T1 sequence (P04062 40-536 L483P): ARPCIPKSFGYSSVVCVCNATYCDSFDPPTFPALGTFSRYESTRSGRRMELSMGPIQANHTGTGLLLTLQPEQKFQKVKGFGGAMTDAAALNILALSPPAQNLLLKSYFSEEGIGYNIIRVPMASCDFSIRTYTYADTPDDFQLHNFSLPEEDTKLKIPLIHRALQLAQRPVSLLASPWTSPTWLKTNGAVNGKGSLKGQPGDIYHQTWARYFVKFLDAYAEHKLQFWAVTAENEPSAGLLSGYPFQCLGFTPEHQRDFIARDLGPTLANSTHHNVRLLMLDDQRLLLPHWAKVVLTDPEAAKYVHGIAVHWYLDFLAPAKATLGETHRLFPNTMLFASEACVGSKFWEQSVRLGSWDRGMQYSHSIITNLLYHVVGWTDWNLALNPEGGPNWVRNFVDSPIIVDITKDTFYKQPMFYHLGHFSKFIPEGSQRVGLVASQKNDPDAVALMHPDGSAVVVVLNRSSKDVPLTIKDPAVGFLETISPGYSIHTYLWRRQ
Outline: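 GM08760A fibroblasts (homozygous p.L444P), 5×10^3 cells/well, treated with compound for 4 days at 37° C. Intact cells then incubated with 4-MU-β-D-glucopyranoside in 0.1 M acetate buffer pH=4 for 1 hour at 37° C.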

[2] = target: T2, β-glucocerebrosidase Wild Type (WT) (Homo sapiens, UniProt P04062); assay: β-glucocerebrosidase activity enhancement, Wild Type (WT); format: cell-based; details: increase in enzyme activity vs non-treated cells
T2 construct: endogenous in cells
T2 sequence (P04062 40-536): T1 sequence (P04062 40-536 L483P) with P444L
Protocol: Fibroblasts were seeded at 5×10^3 cells per well in 96-well cell culture plates (Corning, N.Y., USA) in Dulbecco's Modified Eagle's Media (DMEM) supplemented with 10% of fetal bovine serum (FBS), 1% penicillin/streptomycin (P/S) (Thermo Fisher Scientific, Waltham, Mass., USA) and grown at 37° C., 5% CO2 overnight for cell attachment. Subsequently, cells were incubated in the absence or presence of the compounds at the desired concentration for 4 days. After incubation, cells were washed twice with phosphate-buffered saline (PBS) and enzyme activity assay was performed.
β-glucocerebrosidase activity in intact cultured cells was measured by using 4-methylumbelliferyl-β-D-glucopyranoside substrate (Apollo Scientific, UK). Briefly, cells were incubated with 4-MU-β-D-glucopyranoside in 0.1 M acetate buffer pH=4 at 37° C. for 1 hour. […] The liberated 4-MU was measured on a GloMax Discover plate reader (Promega, Madison, Wis., USA) with and excitation at 340 nm and emission at 460 nm. Enzyme activities were expressed in treated cells as X-fold increase in comparison with non-treated cells (X=1 represents no enhancement).
The following compounds listed in Table 2 were purchased (from Enamine, Princeton, Asinex, Vistas-M, and OSSK_541352) and tested in the assay as described above.

[3] = concentrations between 6 and 50 μM, 4 days incubation

Compound | Activity L444P [1, 3] | Activity Wild Type (WT) [2] | Activity L444P ([1]; commercially available compounds, 6-50 μM, 4 days) | Activity WT ([2]; commercially available compounds)
CN(Cc1ccccc1)Cc1cc(Nc2ccc3ccncc3c2)nc(N)n1 [Example 30, 6-((Benzyl(methyl)amino)methyl)-N^4-(isoquinolin-7-yl)pyrimidine-2,4-diamine] | A (Increase in comparison with non-treated of >2.0 fold is shown as A) | B (Increase in comparison with non-treated of >1.7-2.0 fold is shown as B) | – | –
CN(Cc1ccccc1)Cc1nc(N)nc(Nc2cccnc2)n1 [Example 26, 6-((Benzyl(methyl)amino)methyl)-N^2-(pyridin-3-yl)-1,3,5-triazine-2,4-diamine] | C (Increase in comparison with non-treated of 1.2-1.7 fold is shown as C) | B (Increase in comparison with non-treated of >1.7-2.0 fold is shown as B) | – | –
COc1cccc(Nc2cc(CN(C)Cc3ccccc3)nc(N)n2)c1OC [Example 42, 6-((Benzyl(methyl)amino)methyl)-N^4-(2,3-dimethoxyphenyl)pyrimidine-2,4-diamine] | C (Increase in comparison with non-treated of 1.2-1.7 fold is shown as C) | B (Increase in comparison with non-treated of >1.7-2.0 fold is shown as B) | – | –
CCc1ccc(CN(C)Cc2nc(N)nc(Nc3ccc(C)cc3)n2)cc1 [6-(((4-ethylbenzyl)(methyl)amino)methyl)-N2-(p-tolyl)-1,3,5-triazine-2,4-diamine] | – | – | C (Increase in comparison with non-treated of 1.2-1.7 fold is shown as C) | B (Increase in comparison with non-treated of >1.7-2.0 fold is shown as B)
Cc1cccc(Nc2cc(CN(C)Cc3ccccc3)nc(N)n2)c1 [Example 16] | B (Increase in comparison with non-treated of >1.7-2.0 fold is shown as B) | A (Increase in comparison with non-treated of >2.0 fold is shown as A) | – | –
Cc1ccc(Nc2nc(N)nc(CN(C)Cc3ccccc3)n2)cc1 [Example 4, 6-((Benzyl(methyl)amino)methyl)-N^2-p-tolyl-1,3,5-trizine-2,4-diamine] | C (Increase in comparison with non-treated of 1.2-1.7 fold is shown as C) | A (Increase in comparison with non-treated of >2.0 fold is shown as A) | – | –
COc1cccc(Nc2cc(CN(C)Cc3cccc(C#N)c3)nc(N)n2)c1 [Example 37, 3-((((2-Amino-6-(3-methoxyphenylamino)pyrimidin-4-yl)methyl)(methyl)amino)methyl) benzonitrile] | C (Increase in comparison with non-treated of 1.2-1.7 fold is shown as C) | B (Increase in comparison with non-treated of >1.7-2.0 fold is shown as B) | – | –
COc1ccc(C)cc1Nc1cc(CN(C)Cc2ccccc2)nc(N)n1 [Example 46, 6-((Benzyl(methyl)amino)methyl)-N^4-(2-methoxy-5-methylphenyl)pyrimidine-2,4-diamine] | B (Increase in comparison with non-treated of >1.7-2.0 fold is shown as B) | B (Increase in comparison with non-treated of >1.7-2.0 fold is shown as B) | – | –
Cc1cccc(Nc2nc(N)cc(CN(C)Cc3ccccc3)n2)c1 [Example 68, 6-((Benzyl(methyl)amino)methyl)-N^2-m-tolylpyrimidine-2,4-diamine] | B (Increase in comparison with non-treated of >1.7-2.0 fold is shown as B) | A (Increase in comparison with non-treated of >2.0 fold is shown as A) | – | –
COc1cccc(Nc2nc(N)nc(CN(C)Cc3ccccc3)n2)c1 [Example 9] | C (Increase in comparison with non-treated of 1.2-1.7 fold is shown as C) | B (Increase in comparison with non-treated of >1.7-2.0 fold is shown as B) | – | –
CN(Cc1ccccc1)Cc1cc(Nc2ccc(C#N)cc2)nc(N)n1 [Example 19, 4-(2-amino-6-((benzyl(methyl)amino)methyl)pyrimidin-4-ylamino)benzonitrile] | B (Increase in comparison with non-treated of >1.7-2.0 fold is shown as B) | B (Increase in comparison with non-treated of >1.7-2.0 fold is shown as B) | – | –
